Data from PubChem BioAssay (NCI).
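Protocol summary: plate cells (96-well), add compound at 5 concentrations, incubate 48 h, interpolate endpoints linearly. TGI denotes the concentration required for complete inhibition of growth.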

Experiments:
Assay in all cases: DTP human tumour cell line panel, 48 h
[1] = tested on: MCF7 breast
[2] = tested on: MDA-MB-231 breast
[3] = tested on: 786-0 renal
[4] = tested on: SR leukemia
[5] = tested on: SF-539 CNS
[6] = tested on: HOP-62 NSCLC
[7] = tested on: BT-549 breast
[8] = tested on: CCRF-CEM leukemia

| Compound | TGI [1] [µM] | TGI [2] [µM] | TGI [3] [µM] | TGI [4] [µM] | TGI [5] [µM] | TGI [6] [µM] | TGI [7] [µM] | TGI [8] [µM] |
| --- | --- | --- | --- | --- | --- | --- | --- | --- |
| CCCCCCCC(CC(=O)O)OC(=O)CC(CCCCCCC)OC1OC(C)C(O)C(O)C1OC1OC(C)C(O)C(O)C1O (configuration not stated) | > 100 | > 100 | > 100 | > 100 | > 100 | > 100 | > 100 | > 100 |
| CC(=O)Nc1ncc2c(n1)-c1ccccc1OC2 | > 100 | > 100 | > 100 | > 100 | > 100 |  | > 100 | > 100 |
| COc1cc([C@@H]2c3cc4c(cc3[C@@H](Nc3ccc(Cl)cc3C(=O)c3ccccc3Cl)[C@H]3COC(=O)[C@H]23)OCO4)cc(OC)c1OC | > 100 | > 100 | > 100 | 0.425 | 0.198 | 16.9 | > 100 |  |
| CSc1s[s+]c(SC)c1-c1ccccc1 | 33.7 | 31.2 | 28.1 |  | 32.4 | 29.4 | 28.2 | 81.4 |
| C=CC1(CCC(Br)C(C)(C)Cl)CO1 (configuration not stated) | > 10 | > 10 | > 10 |  | > 10 | > 10 | > 10 | > 10 |
| C/C(=N\O)c1ccc(Nc2c3ccccc3nc3occc23)cc1 |  | > 39.3 | 3.3 |  | 0.732 | > 24.1 | > 12.4 | 1.89 |
| C=CCOn1c(C=C)nc2c(C)cccc21 | 12.5 | 14.8 | 5.83 | 12.6 |  | 22 | 19.1 | 3.68 |
| COC(=O)C(Cc1ccccc1)NC(=O)CCCNC(=O)OCc1ccccc1 (configuration not stated) | > 100 | > 100 | > 100 | > 100 |  | > 100 | > 100 | > 100 |
| CC(=O)OCC1OC(n2c3c(c(-c4ccco4)c(C#N)c2=S)CCCC3)C(OC(C)=O)C(OC(C)=O)C1OC(C)=O (configuration not stated) | > 100 | > 31.6 | 52.6 | > 31.6 | > 31.6 | 21.8 |  |  |
| O=C(CCCN1CCc2[nH]c3cc(F)ccc3c2C1)c1ccc(F)cc1 | 18.3 | 25.5 | 26.6 | 26.1 | 30.5 | 29.8 |  | 30.9 |
| CC(C)CC1c2[nH]c3ccccc3c2C[C@H]2C(=O)NC(COC(C)(C)C)C(=O)N12 (some centres not stated) | > 100 | 38.8 | 98.5 | 46.2 |  | 79.3 | 60.9 |  |
| COc1ccc(S(=O)(=O)Nc2ccc(-c3csc(N4C(=O)/C(=C/C=C\c5ccccc5)N=C4c4ccccc4)n3)cc2)cc1Cl | > 100 | 51.6 | > 100 | > 100 | > 100 | > 100 |  | > 100 |
| COc1ccc(NC(=O)C2=C(SC)C(=O)N=C2N)cc1 |  | > 100 | > 100 | > 100 |  | > 100 | > 100 | > 100 |
| COC(=O)C1(Cc2ccccc2)Cc2ccccc2C1=O (configuration not stated) | > 100 | > 100 | > 100 | 78.3 | > 100 | > 100 |  | > 100 |
| CC1=CC(c2ccccc2)n2c(nc3cc4ccccc4cc32)N1 (configuration not stated) | > 100 | > 100 | > 100 | > 100 | > 100 |  | > 100 | > 100 |
| CCOc1ccc(NC(=S)/N=C/C(C(=O)Nc2ccccc2C)=C(\C)O)cc1 | > 100 | > 100 | > 100 |  | > 100 | > 100 | > 100 |  |
| COC(=O)CCc1ccc2c(c1)CC1(C2)Cc2ccc(CCC(=O)OC)cc2C1 | > 100 | > 100 | > 100 | 61.5 | > 100 | > 100 |  | 97.1 |
| COc1cc2c(cc1OC)C1Cc3ccccc3CN1CCC2 (configuration not stated) | > 100 | > 100 | > 100 | > 100 | > 100 | > 100 |  | > 100 |
| COc1cc(/C=C2\C[C@H]3[C@@H]4CC=C5C[C@@H](N6CCCC6)CC[C@]5(C)[C@H]4CC[C@]3(C)[C@H]2OC(C)=O)cc(OC)c1OC | 29.8 | 29.8 | 23.3 |  |  | 29.3 | 28.1 | > 100 |
| C=C1c2nc3ccccc3n2C=C(c2ccccc2)N1c1ccc(OC)cc1 | 24.1 | > 100 | 56.8 | > 100 | 26.9 |  | 38.3 | > 100 |
| COc1ccc([C@@]23CCC(=O)C[C@@H]2N(C)CC3)cc1OC | > 100 | > 100 | > 100 | > 100 | > 100 | > 100 |  | > 100 |
| CSc1nc(Br)nc2c1ncn2C1CC(Oc2ccc(C)cc2)C(COc2ccc(C)cc2)O1 (configuration not stated) | > 100 | > 100 | > 100 |  | > 100 | > 100 | > 100 | > 100 |
| C=C1C(=O)O[C@H]2C(=O)[C@H](C)CCC[C@@](C)(O)/C=C\C[C@@]3(C)O[C@@H]3C[C@@H]12 | 37.5 | 43.6 | 25 |  | 36.9 |  |  | 12.3 |
| Cc1cccc(N2CCN(S(=O)(=O)c3ccc(Cl)cc3)C2=N)c1C | > 100 | > 100 | > 100 | > 100 | > 100 |  | > 100 |  |
| CCOC(=O)Cc1nc2c(=O)[nH]cnc2n1C1OC(COC(C)=O)C(OC(C)=O)C1OC(C)=O (configuration not stated) | > 100 | > 100 | > 100 |  | > 100 | > 100 | > 100 | > 100 |
| O=C(O)CCCc1nc2c(n1-c1ccccc1)C(=O)c1ccccc1C2=O | > 100 | > 100 | > 100 | > 100 | > 100 |  |  | > 100 |
| COC1(OC)N=C(N)C2(C#N)/C(=N/N(C)C)CC(C)C12C#N (configuration not stated) | > 100 | > 100 | > 100 | > 100 | > 100 | > 100 |  | > 100 |
| OCc1ccccc1OC1OC(CO)C(O)C(O)C1O (configuration not stated) | > 100 | > 100 | > 100 |  | > 100 | > 100 | > 100 | > 100 |
